Test results from patent US12077503B2, “Substituted cyclic amides and their use as herbicides” (FMC CORPORATION, priority 2015, dated 2024).

Legend:
Type in all cases: in vivo
[1] = system: barnyardgrass (Echinochloa crus-galli); assay: Test G Pre-Emergence Protocol; conditions: Echinochloa crus-galli, pre-emergence, 312 h, evaluated after 13 days
Outline: (§1)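 Herbicidal effect was rated 13 days post-application on a scale where 100 equals total damage. Spraying took place the day after sowing, using 15.625, 62.5 or 250 g/ha of compound in a 50:50 acetone/water solution with 0.5% Tween 20.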

corn (Zea mays) [2] = assay: Test G Pre-Emergence Protocol; conditions: Zea mays, pre-emergence, 312 h, evaluated after 13 days
Outline: as §1

[3] = system: giant foxtail (Setaria faberi); assay: Test G Pre-Emergence Protocol; conditions: Setaria faberi, pre-emergence, 312 h, evaluated after 13 days
Outline: as §1

[4] = system: ivy-leaved morning glory (Ipomoea hederacea); assay: Test G Pre-Emergence Protocol; conditions: Ipomoea, pre-emergence, 312 h, evaluated after 13 days
Outline: as §1

[5] = system: redroot pigweed (Amaranthus retroflexus); assay: Test G Pre-Emergence Protocol; conditions: Amaranthus retroflexus, pre-emergence, 312 h, evaluated after 13 days
Outline: as §1

[6] = system: velvetleaf (Abutilon theophrasti); assay: Test G Pre-Emergence Protocol; conditions: Abutilon theophrasti, pre-emergence, 312 h, evaluated after 13 days
Outline: as §1

[7] = system: barnyardgrass (Echinochloa crus-galli); assay: Test G Post-Emergence Protocol; conditions: Echinochloa crus-galli, post-emergence, 312 h
Outline: (§2)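 A glasshouse post-emergence test: 8-day-old plants sprayed at 15.625, 62.5 or 250 g/ha, then grown at 24/16 °C day/night with 14 h light and 65% humidity. Damage rated 13 days later, 0–100.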

corn (Zea mays) [8] = assay: Test G Post-Emergence Protocol; conditions: Zea mays, post-emergence, 312 h
Outline: as §2

[9] = system: giant foxtail (Setaria faberi); assay: Test G Post-Emergence Protocol; conditions: Setaria faberi, post-emergence, 312 h
Outline: as §2

[10] = system: ivy-leaved morning glory (Ipomoea hederacea); assay: Test G Post-Emergence Protocol; conditions: Ipomoea, post-emergence, 312 h
Outline: as §2

[11] = system: redroot pigweed (Amaranthus retroflexus); assay: Test G Post-Emergence Protocol; conditions: Amaranthus retroflexus, post-emergence, 312 h
Outline: as §2

[12] = system: velvetleaf (Abutilon theophrasti); assay: Test G Post-Emergence Protocol; conditions: Abutilon theophrasti, post-emergence, 312 h
Outline: as §2

## COc1ccc(CNC(=O)[C@H]2C(=O)N(C)C[C@@H]2c2ccc(C(F)(F)F)cc2)c(OC)c1 (racemic) [Compound 1479]
[1]; 15.625 g ai/ha, read-out: Barnyard grass damage rating (100=total damage to plant; 0=no damage to plant)
  pest or weed control at 15.625 g/ha: 0%
[1]; 62.5 g ai/ha, 100=total damage to plant, 0=no damage to plant, read-out: plant damage rating, Barnyardgrass
  pest or weed control at 62.5 g/ha: 0%
[1]; 250 g ai/ha, read-out: Barnyardgrass damage rating (100=total damage to plant; 0=no damage to plant)
  pest or weed control at 250 g/ha: 10%
Corn (Zea mays) [2]; 15.625 g ai/ha, read-out: Corn damage rating (100=total damage to plant; 0=no damage to plant)
  plant injury at 15.625 g/ha: 0%
Corn (Zea mays) [2]; 62.5 g ai/ha, 100=total damage to plant, 0=no damage to plant, read-out: plant damage rating, Corn
  plant injury at 62.5 g/ha: 0%
Corn (Zea mays) [2]; 250 g ai/ha, read-out: Corn damage rating (100=total damage to plant; 0=no damage to plant)
  plant injury at 250 g/ha: 0%
[3]; 15.625 g ai/ha, read-out: Foxtail, Giant damage rating (100=total damage to plant; 0=no damage to plant)
  pest or weed control at 15.625 g/ha: 0%
[3]; 62.5 g ai/ha, 100=total damage to plant, 0=no damage to plant, read-out: plant damage rating, Foxtail, Giant
  pest or weed control at 62.5 g/ha: 20%
[3]; 250 g ai/ha, read-out: Foxtail, Giant damage rating (100=total damage to plant; 0=no damage to plant)
  pest or weed control at 250 g/ha: 20%
[4]; 15.625 g ai/ha, read-out: Morning-glory, Ivy-leaved damage rating (100=total damage to plant; 0=no damage to plant)
  pest or weed control at 15.625 g/ha: 0%
[4]; 62.5 g ai/ha, 100=total damage to plant, 0=no damage to plant, read-out: plant damage rating, Morningglory, Ivy-leaved
  pest or weed control at 62.5 g/ha: 0%
[4]; 250 g ai/ha, read-out: Morningglory, Ivy-leaved damage rating (100=total damage to plant; 0=no damage to plant)
  pest or weed control at 250 g/ha: 0%
[5]; 15.625 g ai/ha, read-out: Pigweed, Redroot damage rating (100=total damage to plant; 0=no damage to plant)
  pest or weed control at 15.625 g/ha: 0%
[5]; 62.5 g ai/ha, 100=total damage to plant, 0=no damage to plant, read-out: plant damage rating, Pigweed, Redroot
  pest or weed control at 62.5 g/ha: 0%
[5]; 250 g ai/ha, read-out: Pigweed, Redroot damage rating (100=total damage to plant; 0=no damage to plant)
  pest or weed control at 250 g/ha: 0%
[6]; 15.625 g ai/ha, read-out: Velvetleaf damage rating (100=total damage to plant; 0=no damage to plant)
  pest or weed control at 15.625 g/ha: 0%
[6]; 62.5 g ai/ha, 100=total damage to plant, 0=no damage to plant, read-out: plant damage rating, Velvetleaf
  pest or weed control at 62.5 g/ha: 0%
[6]; 250 g ai/ha, read-out: Velvetleaf damage rating (100=total damage to plant; 0=no damage to plant)
  pest or weed control at 250 g/ha: 10%
[7]; 15.625 g ai/ha, evaluated after 13 days (100=total damage to plant; 0=no damage to plant), read-out: Barnyardgrass damage rating
  pest or weed control at 15.625 g/ha: 0%
[7]; 62.5 g ai/ha, evaluated after 13 days, read-out: Barnyardgrass damage rating (100=total damage to plant; 0=no damage to plant)
  pest or weed control at 62.5 g/ha: 20%
[7]; 250 g ai/ha, evaluated after 13 days, read-out: damage to plant, Barnyardgrass (100=total damage to plant; 0=no damage to plant)
  pest or weed control at 250 g/ha: 20%
Corn (Zea mays) [8]; 15.625 g ai/ha, evaluated after 13 days (100=total damage to plant; 0=no damage to plant), read-out: Corn damage rating
  plant injury at 15.625 g/ha: 10%
Corn (Zea mays) [8]; 62.5 g ai/ha, evaluated after 13 days, read-out: Corn damage rating (100=total damage to plant; 0=no damage to plant)
  plant injury at 62.5 g/ha: 10%
Corn (Zea mays) [8]; 250 g ai/ha, evaluated after 13 days, read-out: damage to plant, Corn (100=total damage to plant; 0=no damage to plant)
  plant injury at 250 g/ha: 10%
[9]; 15.625 g ai/ha, evaluated after 13 days (100=total damage to plant; 0=no damage to plant), read-out: Foxtail, Giant damage rating
  pest or weed control at 15.625 g/ha: 0%
[9]; 62.5 g ai/ha, evaluated after 13 days, read-out: Foxtail, Giant damage rating (100=total damage to plant; 0=no damage to plant)
  pest or weed control at 62.5 g/ha: 20%
[9]; 250 g ai/ha, evaluated after 13 days, read-out: damage to plant, Foxtail, Giant (100=total damage to plant; 0=no damage to plant)
  pest or weed control at 250 g/ha: 0%
[10]; 15.625 g ai/ha, evaluated after 13 days (100=total damage to plant; 0=no damage to plant), read-out: Morningglory, Ivy-leaved damage rating
  pest or weed control at 15.625 g/ha: 0%
[10]; 62.5 g ai/ha, evaluated after 13 days, read-out: Morningglory, Ivy-leaved damage rating (100=total damage to plant; 0=no damage to plant)
  pest or weed control at 62.5 g/ha: 0%
[10]; 250 g ai/ha, evaluated after 13 days, read-out: damage to plant, Morningglory, Ivy-leaved (100=total damage to plant; 0=no damage to plant)
  pest or weed control at 250 g/ha: 0%
[11]; 15.625 g ai/ha, evaluated after 13 days (100=total damage to plant; 0=no damage to plant), read-out: Pigweed, Redroot damage rating
  pest or weed control at 15.625 g/ha: 0%
[11]; 62.5 g ai/ha, evaluated after 13 days, read-out: Pigweed, Redroot damage rating (100=total damage to plant; 0=no damage to plant)
  pest or weed control at 62.5 g/ha: 0%
[11]; 250 g ai/ha, evaluated after 13 days, read-out: damage to plant, Pigweed, Redroot (100=total damage to plant; 0=no damage to plant)
  pest or weed control at 250 g/ha: 20%
[12]; 15.625 g ai/ha, evaluated after 13 days (100=total damage to plant; 0=no damage to plant), read-out: Velvetleaf damage rating
  pest or weed control at 15.625 g/ha: 0%
[12]; 62.5 g ai/ha, evaluated after 13 days, read-out: Velvetleaf damage rating (100=total damage to plant; 0=no damage to plant)
  pest or weed control at 62.5 g/ha: 0%
[12]; 250 g ai/ha, evaluated after 13 days, read-out: damage to plant, Velvetleaf (100=total damage to plant; 0=no damage to plant)
  pest or weed control at 250 g/ha: 0%
